Activity calls are given as the source filed them. The rule behind the calls is not given here.

The test system of assay [1] is Hep 3B2. The assay can be described thus: Cytotoxicity against human Hep3B cells after 6 days by MTT assay. The format is functional, cell-based. The settings on record: 144 h.
The subject of a further assay is HT-29. As to the kind of experiment: Cytotoxicity against human HT-29 cells after 6 days by MTT assay. The settings on record: HT-29, 144 h. In kind it is functional, cell-based. (Tetrazolium dyes change colour on reduction, which living cells bring about.)
Assay [2] deals with Hep 3B2. As to the kind of experiment: Growth inhibition of human Hep3B cells at 30 uM after 48 hrs by MTT assay. In kind it is functional, cell-based.
Assay [3] has as its system Hep 3B2. As to the kind of experiment: Cell cycle arrest in human Hep3B cells assessed as accumulation at sub-G1 phase at 30 uM after 48 hrs by propidium iodide staining based flow cytometry (reference value: 3.7 +/- 0.4%). The format is functional. (In flow cytometry, cells or beads pass a laser one at a time.)
Assay [4] deals with Hep 3B2. As to the kind of experiment: Induction of autophagy in human Hep3B cells assessed as ratio of LC3-2 to beta-actin level at 30 uM after 48 hrs by Western blot analysis. The format is functional. For orientation: In western blotting, separated proteins are transferred to a membrane and probed.
Assay [5] has as its system Hep 3B2. The assay can be described thus: Cell cycle arrest in human Hep3B cells assessed as accumulation at G2/M phase at 30 uM after 48 hrs by propidium iodide staining based flow cytometry (reference value: 36.6 +/- 2.9%). The format is functional.
Assay [6] deals with Hep 3B2. As to the kind of experiment: Cell cycle arrest in human Hep3B cells assessed as accumulation at G0/G1 phase at 30 uM after 48 hrs by propidium iodide staining based flow cytometry (reference value: […] +/- […]%). In kind it is functional.
In assay [7] the test system is Hep 3B2. As to the kind of experiment: Induction of apoptosis in human Hep3B cells assessed as ratio of cleaved caspase-3 to beta actin level at 30 uM after 48 hrs by Western blot analysis. The format is functional.
Assay [8] concerns Hep 3B2. The assay can be described thus: Cell cycle arrest in human Hep3B cells assessed as accumulation at S phase at 30 uM after 48 hrs by propidium iodide staining based flow cytometry (reference value: 23.8 +/- 1.9%). The format is functional.

In the case of `Cc1ccc2c(c1)OCC(=O)N2Cc1cn(Cc2ccccc2)nn1`, the IC50 (commonly the point on the concentration scale where inhibition reaches its midpoint) is over 100 µM in the assay with Hep 3B2 [1] and 54.9 µM with HT-29.

For the compound `O=C1COc2ccccc2N1Cc1cn(Cc2ccc3ccccc3n2)nn1`, the IC50 in the assay on Hep 3B2 [1] and in the assay on HT-29 was over 100 µM throughout.

Regarding `CCCCCCn1cc(CN2C(=O)COc3ccccc32)nn1`, the IC50 with Hep 3B2 [1] is over 100 µM; in the assay on HT-29, 34.4 µM.

On to `O=C1COc2ccccc2N1Cc1cn(CCc2ccccc2)nn1`, for which the IC50 in the assay on Hep 3B2 [1] turned out to be 66 µM; in the assay on HT-29, 48.8 µM.

In the case of `O=C1COc2cc(F)ccc2N1Cc1cn(Cc2ccccc2)nn1`, the half-maximal inhibitory concentration (IC50) in the assay on Hep 3B2 [1] was 0.9 µM; in the assay with HT-29 it was over 100 µM.

As to `O=C1COc2ccccc2N1Cc1cn(C/C=C/c2ccccc2)nn1`, the results for the IC50 in the assay on Hep 3B2 [1] and in the assay on HT-29 were 38.9 µM and over 100 µM, respectively.

For `O=C1COc2ccc(F)cc2N1Cc1cn(Cc2ccccc2)nn1`, the IC50 in the assay on Hep 3B2 [1] and with HT-29 was over 100 µM throughout.

On to `COc1ccc2c(c1)OCC(=O)N2Cc1cn(Cc2ccccc2)nn1`, for which the IC50 came to 9.2 µM in the assay with Hep 3B2 [1] and 9.3 µM in the assay on HT-29.

As to `COc1ccc2c(c1)N(Cc1cn(Cc3ccccc3)nn1)C(=O)CO2`, the IC50 with Hep 3B2 [1] and in the assay on HT-29 was over 100 µM throughout.

As for `O=C1COc2cccnc2N1Cc1cn(Cc2ccccc2)nn1`, the IC50 is 8.7 µM in the assay on Hep 3B2 [1] and 12.8 µM in the assay with HT-29.

With `CCCC1Oc2ccccc2N(Cc2cn(Cc3ccccc3)nn2)C1=O` (stereo unspecified), the half-inhibitory concentration (IC50) is 61.8 µM in the assay with Hep 3B2 [1] and over 100 µM with HT-29.

As for `O=C1COc2ccccc2N1Cc1cn(Cc2ccc(Cl)cc2)nn1`, the results for the IC50 with Hep 3B2 [1] and in the assay with HT-29 were over 100 µM and 21.9 µM, respectively.

As to `CCC1Oc2ccccc2N(Cc2cn(Cc3ccccc3)nn2)C1=O` (stereo unspecified), the IC50 in the assay with Hep 3B2 [1] and in the assay on HT-29 was over 100 µM throughout.

`CC(C)(C)c1ccc(Cn2cc(CN3C(=O)COc4ccccc43)nn2)cc1`: the IC50 with Hep 3B2 [1] is 25.6 µM; in the assay with HT-29, 25.1 µM.

As to `O=C1COc2ccccc2N1Cc1cn(Cc2cccc3ccccc23)nn1`, the IC50 in the assay with Hep 3B2 [1] is 15.2 µM; with HT-29 it was 17 µM.

Consider `Cc1ccc(Cn2cc(CN3C(=O)COc4ccccc43)nn2)cc1`, for which the results for the half-maximal inhibitory concentration (IC50) with Hep 3B2 [1] and with HT-29 were over 100 µM and 28.6 µM, respectively.

For the compound `Cc1cc2c(cc1Cl)N(Cc1cn(Cc3ccccc3)nn1)C(=O)CO2`, the IC50 was over 100 µM with Hep 3B2 [1] and 19.6 µM in the assay on HT-29.

Regarding `O=C1COc2ccccc2N1Cc1cn(Cc2ccccc2)nn1`, the IC50 in the assay on Hep 3B2 [1] is 84.5 µM; in the assay with HT-29, over 100 µM.

With `COc1cc(/C=C/C(=O)CC(=O)/C=C/c2ccc(O)c(OC)c2)ccc1O` [CURCUMIN], the “growth inhibition (GI)” value in the assay with Hep 3B2 [2] is “Active”. Besides, the Activity with Hep 3B2 [3] is 14.2%; in the assay on Hep 3B2 [5], 46.7%; in the assay on Hep 3B2 [6], 22.7%; with Hep 3B2 [8] it was 16.4%. The Ratio in the assay with Hep 3B2 [4] is on record as 6.6; with Hep 3B2 [7], 1.2.

Take `COc1ccc(Cn2cc(CN3C(=O)COc4ccccc43)nn2)cc1`: the IC50 was over 100 µM in the assay on Hep 3B2 [1] and 18.5 µM in the assay on HT-29.

`CCOC(=O)Cn1cc(CN2C(=O)COc3ccccc32)nn1`: the half-inhibitory concentration (IC50) with Hep 3B2 [1] came out at 19 µM; with HT-29, 36.4 µM.

Take `O=C1C(c2ccccc2)Oc2ccccc2N1Cc1cn(Cc2ccccc2)nn1` (stereo unspecified): the IC50 with Hep 3B2 [1] and in the assay with HT-29 was over 100 µM in each case.

For the compound `COC(=O)Cn1cc(CN2C(=O)COc3ccccc32)nn1`, the IC50 is over 100 µM in the assay with Hep 3B2 [1] and 50.8 µM with HT-29.

In the case of `O=C1COc2ccccc2N1Cc1cn(Cc2ccc([N+](=O)[O-])cc2)nn1`, the half-inhibitory concentration (IC50) was 29.6 µM in the assay with Hep 3B2 [1] and 15.6 µM with HT-29.

Consider `O=C1COc2ccc(Cl)cc2N1Cc1cn(Cc2ccccc2)nn1`, for which the IC50 with Hep 3B2 [1] was 55.5 µM; in the assay with HT-29, 76.5 µM.

Take `CCOC(=O)c1ccc2c(c1)N(Cc1cn(Cc3ccccc3)nn1)C(=O)CO2`: the IC50 in the assay on Hep 3B2 [1] worked out at 17.1 µM; in the assay with HT-29 it was 41.5 µM.

On to `O=C1COc2ccccc2N1Cc1cn(CCc2c[nH]c3ccccc23)nn1`, for which the concentration for half-maximal inhibition (IC50) with Hep 3B2 [1] was 70 µM; with HT-29, 15.2 µM.

Take `Cc1ccc2c(c1)N(Cc1cn(Cc3ccccc3)nn1)C(=O)CO2`: the IC50 with Hep 3B2 [1] and in the assay with HT-29 was over 100 µM in each case.

The values above are taken from ChEMBL document CHEMBL4024707, “Using gene expression database to uncover biology functions of 1,4-disubstituted 1,2,3-triazole analogues synthesized via a copper (I)-catalyzed reaction” (Eur J Med Chem, 2017).
